Tests used:
Assay in all cases: cells
Format in all cases: functional, cell-based
Details in all cases: Homo sapiens
C2BBe1 = tested on: C2BBe1;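 note: growth inhibition of C2BBe1 cells, read out through a viability assay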
Description: SANGER: Inhibition of human C2BBe1 cell growth in a cell viability assay.

HCE-T = tested on: HCE-T;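 note: cell viability assay read-out, reporting inhibition of HCE-T cell growth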
Description: SANGER: Inhibition of human HCE-T cell growth in a cell viability assay.

no-11 = tested on: no-11;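 note: growth inhibition of human NO-11 cells, read out with a cell viability assay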
Description: SANGER: Inhibition of human no-11 cell growth in a cell viability assay.

DMS-79 = tested on: DMS-79;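 note: growth inhibition measured with a cell viability assay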
Description: SANGER: Inhibition of human DMS-79 cell growth in a cell viability assay.

MFH-ino = tested on: MFH-ino;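 note: growth inhibition of human MFH-ino cells, read out by a cell viability assay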
Description: SANGER: Inhibition of human MFH-ino cell growth in a cell viability assay.

MZ1-PC = tested on: MZ1-PC;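 note: cell viability assay measuring growth inhibition of human MZ1-PC cells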
Description: SANGER: Inhibition of human MZ1-PC cell growth in a cell viability assay.

NCI-H1648 = tested on: NCI-H1648;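 note: cell viability assay measuring inhibition of NCI-H1648 cell growth, from the Sanger screening data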
Description: SANGER: Inhibition of human NCI-H1648 cell growth in a cell viability assay.

SF-268 = tested on: SF-268;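 note: growth inhibition of SF-268 cells determined with a cell viability assay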
Description: SANGER: Inhibition of human SF268 cell growth in a cell viability assay.

EW-11 = tested on: EW-11;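 note: growth inhibition of human EW-11 cells, measured with a cell viability assay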
Description: SANGER: Inhibition of human EW-11 cell growth in a cell viability assay.

LS-513 = tested on: LS-513
Description: SANGER: Inhibition of human LS-513 cell growth in a cell viability assay.

EW-13 = tested on: EW-13;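 note: growth inhibition of EW-13 cells, read out with a cell viability assay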
Description: SANGER: Inhibition of human EW-13 cell growth in a cell viability assay.

EW-24 = tested on: EW-24;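 note: human EW-24 cancer cell line, growth inhibition read out via a cell viability assay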
Description: SANGER: Inhibition of human EW-24 cell growth in a cell viability assay.

BT-474 = tested on: BT-474
Description: SANGER: Inhibition of human BT-474 cell growth in a cell viability assay.

KE-37 = tested on: KE-37;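 note: growth inhibition of KE-37 cells, read out with a cell viability assay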
Description: SANGER: Inhibition of human KE-37 cell growth in a cell viability assay.

GI-1 = tested on: GI-1;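 note: growth inhibition of human GI-1 cells, measured with a cell viability readout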
Description: SANGER: Inhibition of human GI-1 cell growth in a cell viability assay.

OCI-AML2 = tested on: OCI-AML2;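 note: growth inhibition of OCI-AML2 cells, read out with a cell viability assay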
Description: SANGER: Inhibition of human OCI-AML2 cell growth in a cell viability assay.

C8166 = tested on: C8166;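 note: growth inhibition of human C8166 cells measured by a cell viability assay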
Description: SANGER: Inhibition of human C8166 cell growth in a cell viability assay.

SW 954 = tested on: SW 954;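 note: growth inhibition of SW954 human cancer cells, read out as cell viability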
Description: SANGER: Inhibition of human SW954 cell growth in a cell viability assay.

LB373-MEL-D = tested on: LB373-MEL-D;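 note: growth inhibition of the cell line, read out in a cell viability assay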
Description: SANGER: Inhibition of human LB373-MEL-D cell growth in a cell viability assay.

ES6 = tested on: ES6;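 note: growth inhibition of human ES6 cells, read out with a cell viability assay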
Description: SANGER: Inhibition of human ES6 cell growth in a cell viability assay.

HEL = tested on: HEL;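 note: growth inhibition of HEL cells, read out with a cell viability assay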
Description: SANGER: Inhibition of human HEL cell growth in a cell viability assay.

NB5 = tested on: NB5;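 note: growth inhibition of NB5 cells, read out as cell viability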
Description: SANGER: Inhibition of human NB5 cell growth in a cell viability assay.

EW-16 = tested on: EW-16;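 note: growth inhibition of human EW-16 cells, read out as cell viability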
Description: SANGER: Inhibition of human EW-16 cell growth in a cell viability assay.

DU-4475 = tested on: DU-4475
Description: SANGER: Inhibition of human DU-4475 cell growth in a cell viability assay.

ES4 = tested on: ES4;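 note: growth inhibition of human ES4 cells, read out by a cell viability assay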
Description: SANGER: Inhibition of human ES4 cell growth in a cell viability assay.

EC-GI-10 = tested on: EC-GI-10
Description: SANGER: Inhibition of human EC-GI-10 cell growth in a cell viability assay.

NOMO-1 = tested on: NOMO-1;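 note: growth inhibition of human NOMO-1 cells measured by a cell viability assay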
Description: SANGER: Inhibition of human NOMO-1 cell growth in a cell viability assay.

OMC-1 = tested on: OMC-1;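 note: growth inhibition of the OMC-1 cell line, measured by a cell viability assay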
Description: SANGER: Inhibition of human OMC-1 cell growth in a cell viability assay.

ETK-1 = tested on: ETK-1;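 note: growth inhibition of human ETK-1 cells, read out with a cell viability assay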
Description: SANGER: Inhibition of human ETK-1 cell growth in a cell viability assay.

SNU-5 = tested on: SNU-5;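 note: cell viability readout used to measure growth inhibition in human NCI-SNU-5 cells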
Description: SANGER: Inhibition of human NCI-SNU-5 cell growth in a cell viability assay.

LNCaP-Clone-FGC = tested on: LNCaP-Clone-FGC
Description: SANGER: Inhibition of human LNCaP-Clone-FGC cell growth in a cell viability assay.

TK-10 = tested on: TK-10;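 note: growth inhibition of TK-10 cells, read out in a cell viability assay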
Description: SANGER: Inhibition of human TK10 cell growth in a cell viability assay.

VA-ES-BJ = tested on: VA-ES-BJ;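 note: growth inhibition of the VA-ES-BJ cell line, read out by a cell viability assay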
Description: SANGER: Inhibition of human VA-ES-BJ cell growth in a cell viability assay.

LS-123 = tested on: LS-123
Description: SANGER: Inhibition of human LS-123 cell growth in a cell viability assay.

OS-RC-2 = tested on: OS-RC-2;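 note: growth inhibition of human OS-RC-2 cells, measured by a cell viability assay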
Description: SANGER: Inhibition of human OS-RC-2 cell growth in a cell viability assay.

ATN-1 = tested on: ATN-1;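 note: growth inhibition of human ATN-1 cells, read out with a cell viability assay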
Description: SANGER: Inhibition of human ATN-1 cell growth in a cell viability assay.

RS4-11 = tested on: RS4-11;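 note: growth inhibition of RS4-11 cells, read out by a cell viability assay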
Description: SANGER: Inhibition of human RS4-11 cell growth in a cell viability assay.

LU-139 = tested on: LU-139
Description: SANGER: Inhibition of human LU-139 cell growth in a cell viability assay.

ML-2 = tested on: ML-2;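 note: growth inhibition of ML-2 cells, measured with a cell viability readout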
Description: SANGER: Inhibition of human ML-2 cell growth in a cell viability assay.

BB49-HNC = tested on: BB49-HNC;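 note: cell viability assay read-out, reported as inhibition of BB49-HNC cell growth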
Description: SANGER: Inhibition of human BB49-HNC cell growth in a cell viability assay.

EW-3 = tested on: EW-3;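 note: cell viability assay read-out, IC50 reflects inhibition of growth of the EW-3 cells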
Description: SANGER: Inhibition of human EW-3 cell growth in a cell viability assay.

SK-MEL-1 = tested on: SK-MEL-1;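 note: growth inhibition of human SK-MEL-1 cells, read out by a cell viability assay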
Description: SANGER: Inhibition of human SK-MEL-1 cell growth in a cell viability assay.

EB-3 = tested on: EB-3;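 note: human EB-3 cells, growth inhibition read out via a cell viability assay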
Description: SANGER: Inhibition of human EB-3 cell growth in a cell viability assay.

KURAMOCHI = tested on: KURAMOCHI;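 note: growth inhibition of KURAMOCHI cells, read out with a cell viability assay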
Description: SANGER: Inhibition of human KURAMOCHI cell growth in a cell viability assay.

no-10 = tested on: no-10;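 note: growth inhibition of no-10 cells, read out with a cell viability assay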
Description: SANGER: Inhibition of human no-10 cell growth in a cell viability assay.

SK-UT-1 = tested on: SK-UT-1;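 note: growth inhibition of SK-UT-1 cells, measured by a cell viability assay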
Description: SANGER: Inhibition of human SK-UT-1 cell growth in a cell viability assay.

CCRF-CEM = tested on: CCRF-CEM;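 note: inhibition of CCRF-CEM cell growth, measured by a cell viability assay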
Description: SANGER: Inhibition of human CCRF-CEM cell growth in a cell viability assay.

MPP-89 = tested on: MPP-89;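 note: growth inhibition of human MPP-89 cells, read out with a cell viability assay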
Description: SANGER: Inhibition of human MPP-89 cell growth in a cell viability assay.

NCI-H1304 = tested on: NCI-H1304;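 note: growth inhibition of the cancer cell line, measured in a cell viability assay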
Description: SANGER: Inhibition of human NCI-H1304 cell growth in a cell viability assay.

COLO-824 = tested on: COLO-824
Description: SANGER: Inhibition of human COLO-824 cell growth in a cell viability assay.

TE-6 = tested on: TE-6;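 note: growth inhibition of TE-6 cells, read out with a cell viability assay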
Description: SANGER: Inhibition of human TE-6 cell growth in a cell viability assay.

MN-60 = tested on: MN-60;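 note: growth inhibition of the MN-60 cell line, determined with a cell viability assay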
Description: SANGER: Inhibition of human MN-60 cell growth in a cell viability assay.

NCI-H446 = tested on: NCI-H446;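 note: growth inhibition of NCI-H446 cells determined by a cell viability assay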
Description: SANGER: Inhibition of human NCI-H446 cell growth in a cell viability assay.

A498 = tested on: A498;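 note: growth inhibition of human A498 cells, read out with a cell viability assay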
Description: SANGER: Inhibition of human A498 cell growth in a cell viability assay.

## CCNc1cc(N[C@H]2CC[C@@H](O)CC2)nc(Nc2ccc3c(ccn3Cc3ccccc3)c2)n1
C2BBe1
  IC50: > 5.12 µM
HCE-T
  IC50: > 5.12 µM
no-11
  IC50: > 5.12 µM
DMS-79
  IC50: > 5.12 µM
MFH-ino
  IC50: > 5.12 µM
MZ1-PC
  IC50: > 5.12 µM
NCI-H1648
  IC50: > 5.12 µM
SF-268
  IC50: > 5.12 µM
EW-11
  IC50: > 5.12 µM
LS-513
  IC50: > 5.12 µM
EW-13
  IC50: > 5.12 µM
EW-24
  IC50: > 5.12 µM
BT-474
  IC50: > 5.12 µM
KE-37
  IC50: > 5.12 µM
GI-1
  IC50: 2.95 µM
OCI-AML2
  IC50: > 5.12 µM
C8166
  IC50: > 5.12 µM
SW 954
  IC50: > 5.12 µM
LB373-MEL-D
  IC50: > 5.12 µM
ES6
  IC50: > 5.12 µM
HEL
  IC50: > 5.12 µM
NB5
  IC50: > 5.12 µM
EW-16
  IC50: > 5.12 µM
DU-4475
  IC50: > 5.12 µM
ES4
  IC50: > 5.12 µM
EC-GI-10
  IC50: > 5.12 µM
NOMO-1
  IC50: > 5.12 µM
OMC-1
  IC50: > 5.12 µM
ETK-1
  IC50: 0.242 µM
SNU-5
  IC50: > 5.12 µM
LNCaP-Clone-FGC
  IC50: > 5.12 µM
TK-10
  IC50: > 5.12 µM
VA-ES-BJ
  IC50: > 5.12 µM
LS-123
  IC50: > 5.12 µM
OS-RC-2
  IC50: > 5.12 µM
ATN-1
  IC50: > 5.12 µM
RS4-11
  IC50: 3.74 µM
LU-139
  IC50: > 5.12 µM
ML-2
  IC50: > 5.12 µM
BB49-HNC
  IC50: > 5.12 µM
EW-3
  IC50: > 5.12 µM
SK-MEL-1
  IC50: > 5.12 µM
EB-3
  IC50: > 5.12 µM
KURAMOCHI
  IC50: > 5.12 µM
no-10
  IC50: > 5.12 µM
SK-UT-1
  IC50: > 5.12 µM
CCRF-CEM
  IC50: > 5.12 µM
MPP-89
  IC50: > 5.12 µM
NCI-H1304
  IC50: > 5.12 µM
COLO-824
  IC50: > 5.12 µM
TE-6
  IC50: > 5.12 µM
MN-60
  IC50: > 5.12 µM
NCI-H446
  IC50: > 5.12 µM
A498
  IC50: > 5.12 µM

## COc1cc(C)c(Sc2cnc(NC(=O)c3ccc(CNC(C)C(C)(C)C)cc3)s2)cc1C(=O)N1CCN(C(C)=O)CC1 (configuration not stated)
C2BBe1
  IC50: > 10.2 µM
HCE-T
  IC50: > 10.2 µM
no-11
  IC50: > 10.2 µM
DMS-79
  IC50: > 10.2 µM
MFH-ino
  IC50: 3.59 µM
MZ1-PC
  IC50: 3.76 µM
NCI-H1648
  IC50: > 10.2 µM
SF-268
  IC50: > 10.2 µM
EW-11
  IC50: > 10.2 µM
LS-513
  IC50: > 10.2 µM
EW-13
  IC50: > 10.2 µM
EW-24
  IC50: > 10.2 µM
BT-474
  IC50: > 10.2 µM
KE-37
  IC50: > 10.2 µM
GI-1
  IC50: > 10.2 µM
OCI-AML2
  IC50: 7.48 µM
C8166
  IC50: > 10.2 µM
SW 954
  IC50: 7.79 µM
LB373-MEL-D
  IC50: > 10.2 µM
ES6
  IC50: 2.12 µM
HEL
  IC50: > 10.2 µM
NB5
  IC50: > 10.2 µM
EW-16
  IC50: 1.72 µM
DU-4475
  IC50: > 10.2 µM
ES4
  IC50: 6.56 µM
EC-GI-10
  IC50: > 10.2 µM
NOMO-1
  IC50: > 10.2 µM
OMC-1
  IC50: > 10.2 µM
ETK-1
  IC50: 2.24 µM
SNU-5
  IC50: > 10.2 µM
LNCaP-Clone-FGC
  IC50: > 10.2 µM
TK-10
  IC50: > 10.2 µM
VA-ES-BJ
  IC50: > 10.2 µM
LS-123
  IC50: > 10.2 µM
OS-RC-2
  IC50: 8.9 µM
ATN-1
  IC50: 9.51 µM
RS4-11
  IC50: 5.79 µM
LU-139
  IC50: > 10.2 µM
ML-2
  IC50: 3.81 µM
BB49-HNC
  IC50: > 10.2 µM
EW-3
  IC50: 8.57 µM
SK-MEL-1
  IC50: > 10.2 µM
EB-3
  IC50: > 10.2 µM
KURAMOCHI
  IC50: > 10.2 µM
no-10
  IC50: > 10.2 µM
SK-UT-1
  IC50: > 10.2 µM
CCRF-CEM
  IC50: > 10.2 µM
MPP-89
  IC50: > 10.2 µM
NCI-H1304
  IC50: > 10.2 µM
COLO-824
  IC50: > 10.2 µM
TE-6
  IC50: > 10.2 µM
MN-60
  IC50: > 10.2 µM
NCI-H446
  IC50: > 10.2 µM
A498
  IC50: > 10.2 µM

## Cc1n[nH]c2ccc(-c3cncc(OC[C@@H](N)Cc4c[nH]c5ccccc45)c3)cc12 [A-443654]
C2BBe1
  IC50: > 1.02 µM
HCE-T
  IC50: 0.451 µM
no-11
  IC50: 0.13 µM
DMS-79
  IC50: 0.75 µM
MFH-ino
  IC50: 0.236 µM
MZ1-PC
  IC50: 0.0795 µM
NCI-H1648
  IC50: 0.183 µM
SF-268
  IC50: > 1.02 µM
EW-11
  IC50: > 1.02 µM
LS-513
  IC50: > 1.02 µM
EW-13
  IC50: > 1.02 µM
EW-24
  IC50: 0.837 µM
BT-474
  IC50: 0.584 µM
KE-37
  IC50: 0.11 µM
GI-1
  IC50: 0.187 µM
OCI-AML2
  IC50: 0.21 µM
C8166
  IC50: > 1.02 µM
SW 954
  IC50: 0.177 µM
LB373-MEL-D
  IC50: 0.531 µM
ES6
  IC50: 0.0915 µM
HEL
  IC50: 0.422 µM
NB5
  IC50: 0.665 µM
EW-16
  IC50: 0.216 µM
DU-4475
  IC50: 0.801 µM
ES4
  IC50: 0.0377 µM
EC-GI-10
  IC50: > 1.02 µM
NOMO-1
  IC50: 0.561 µM
OMC-1
  IC50: 0.191 µM
ETK-1
  IC50: 0.101 µM
SNU-5
  IC50: > 1.02 µM
LNCaP-Clone-FGC
  IC50: > 1.02 µM
TK-10
  IC50: 0.226 µM
VA-ES-BJ
  IC50: 0.129 µM
LS-123
  IC50: 0.337 µM
OS-RC-2
  IC50: 0.175 µM
ATN-1
  IC50: > 1.02 µM
RS4-11
  IC50: 0.168 µM
LU-139
  IC50: 0.367 µM
ML-2
  IC50: 0.192 µM
BB49-HNC
  IC50: > 1.02 µM
EW-3
  IC50: > 1.02 µM
SK-MEL-1
  IC50: > 1.02 µM
EB-3
  IC50: 0.334 µM
KURAMOCHI
  IC50: 0.244 µM
no-10
  IC50: 0.129 µM
SK-UT-1
  IC50: 0.0814 µM
CCRF-CEM
  IC50: 0.144 µM
MPP-89
  IC50: 0.485 µM
NCI-H1304
  IC50: 0.163 µM
COLO-824
  IC50: > 1.02 µM
TE-6
  IC50: 0.86 µM
MN-60
  IC50: 0.487 µM
NCI-H446
  IC50: 0.395 µM
A498
  IC50: > 1.02 µM

Reference: ChEMBL document CHEMBL1201861, “Genomics of Drug Sensitity in Cancer screening data, Wellcome Trust Sanger Institute”
